Experimental data reported in US20240101546A1, “HETEROARYL-ACETYLENES, PHARMACEUTICAL COMPOSITIONS THEREOF, AND THEIR THERAPEUTIC APPLICATIONS” (Eubulus Biotherapeutics Inc., priority 2020, published 2024).

Test system: hepatocellular carcinoma cell line Hub-7
Assay: Cell proliferation assay, Hub-7 (CELL-TITER GLO)
Type: cell-based
Settings: Hub-7 cells, 24 h incubation, cell viability by CELL-TITER GLO, top concentration 10 μM; read-out: EC50, Inhibition of Hub-7 Cell Proliferation
Method in brief: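 Hub-7 cells, 4,000 per well, seeded overnight, then exposed 24 h to compound from 10 μM top in 3-fold serial dilution. Viability read by CELL-TITER GLO luminescence; EC50 derived and binned into potency categories.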

SMILES	EC50 [nM]
C#Cc1nc(C(=O)N2CCN(c3ccc(-c4cc(C(=O)N(C)C)cc5ncsc45)cc3)CC2)cs1 [Compound D6, 7-(4-(4-(2-Ethynylthiazole-4-carbonyl)piperazin-1-yl)phenyl)-N,N-dimethyl-benzo[d]thiazole-5-carboxamide]	≤ 200
C#Cc1ncc(C(=O)N2CCN(c3ccc(-c4cccc5ncsc45)cc3)CC2)s1 [Compound D7, (4-(4-(benzo[d]thiazol-7-yl)phenyl)piperazin-1-yl)(2-ethynylthiazol-5-yl)methanone]	≤ 200
C#Cc1ncc(C(=O)N2CCN(c3ccc(-c4cccc5scnc45)cc3)CC2)s1 [Compound D8, (4-(4-(Benzo[d]thiazol-4-yl)phenyl)piperazin-1-yl)(2-ethynylthiazol-5-yl)methanone]	200 to 1000
C#Cc1nc(C(=O)N2CCN(c3ccc(-c4cccc5ncsc45)cc3Cl)CC2)cs1 [Compound D9, (4-(4-(Benzo[d]thiazol-7-yl)-2-chlorophenyl)piperazin-1-yl)(2-ethynylthiazol-4-yl)methanone]	≤ 200
C#Cc1nc(C(=O)N2CCN(c3ccc(-c4cccc5ncsc45)cn3)CC2)cs1 [Compound D10, (4-(5-(Benzo[d]thiazol-7-yl)pyridin-2-yl)piperazin-1-yl)(2-ethynylthiazol-4-yl)-methanone]	≤ 200
C#Cc1nc(C(=O)N2CCC(F)(c3ccc(-c4cccc5ncsc45)cc3)CC2)cs1 [Compound D11, (4-(4-(Benzo[d]thiazol-7-yl)phenyl)-4-fluoropiperidin-1-yl)(2-ethynylthiazol-4-yl)methanone]	≤ 200
C#Cc1nc(C(=O)N2CCN(c3ccc(-c4cccc5ncsc45)cc3C#N)CC2)cs1 [Compound D12, 5-(Benzo[d]thiazol-7-yl)-2-(4-(2-ethynylthiazole-4-carbonyl)piperazin-1-yl)-benzonitrile]	≤ 200
C#Cc1nc(C(=O)N2CC(c3ccc(-c4cccc5ncsc45)cc3)C2)cs1 [Compound D13, (3-(4-(Benzo[d]thiazol-7-yl)phenyl)azetidin-1-yl)(2-ethynylthiazol-4-yl)-methanone]	≤ 200
C#Cc1nc(C(=O)N2CCC(O)(c3ccc(-c4cccc5ncsc45)cc3)CC2)cs1 [Compound D14, (4-(4-(Benzo[d]thiazol-7-yl)phenyl)-4-hydroxypiperidin-1-yl)(2-ethynylthiazol-4-yl)methanone]	≤ 200
C#Cc1nc(C(=O)N2CCC(c3cccc(-c4cccc5ncsc45)c3)CC2)cs1 [Compound D15, (4-(3-(Benzo[d]thiazol-7-yl)phenyl)piperidin-1-yl)(2-ethynylthiazol-4-yl)-methanone]	200 to 1000
C#Cc1nc(C(=O)N2CCN(c3cccc(-c4cccc5ncsc45)c3)CC2)cs1 [Compound D16, (4-(3-(Benzo[d]thiazol-7-yl)phenyl)piperazin-1-yl)(2-ethynylthiazol-4-yl)-methanone]	200 to 1000
C#Cc1nc(C(=O)N2CCN(c3ccc(-c4cccc5ncsc45)cc3)CC2)cs1 [Compound D17, (4-(4-(Benzo[d]thiazol-7-yl)phenyl)piperazin-1-yl)(2-ethynylthiazol-4-yl)-methanone]	≤ 200
C#Cc1nc(C(=O)N2CCC(c3ccc(-c4cccc5ncsc45)cc3)CC2)cs1 [Compound D18, (4-(4-(Benzo[d]thiazol-7-yl)phenyl)piperidin-1-yl)(2-ethynylthiazol-4-yl)-methanone]	≤ 200
C#Cc1nc(C(=O)N2CCC(c3ccc(-c4cccc5nn(C)cc45)cc3)CC2)cs1 [Compound D19, (2-Ethynylthiazol-4-yl)(4-(4-(2-methyl-2H-indazol-4-yl)phenyl)piperidin-1-yl)-methanone]	≤ 200
C#Cc1nc(C(=O)N2CCC(c3ccc(-c4cccc5c4cnn5C)cc3)CC2)cs1 [Compound D20, (2-Ethynylthiazol-4-yl)(4-(4-(1-methyl-1H-indazol-4-yl)phenyl)piperidin-1-yl)-methanone]	≤ 200
C#Cc1nc(C(=O)N2CCC(c3ccc(-c4cccc5[nH]ncc45)cc3)CC2)cs1 [Compound D21, (4-(4-(1H-Indazol-4-yl)phenyl)piperidin-1-yl)(2-ethynylthiazol-4-yl)methanone]	≤ 200
C#Cc1nc(C(=O)N2CCN(c3ccc(-c4cccc5c4cnn5C)cc3)CC2)cs1 [Compound D22, (2-Ethynylthiazol-4-yl)(4-(4-(1-methyl-1H-indazol-4-yl)phenyl)piperazin-1-yl)-methanone]	≤ 200
C#Cc1nc(C(=O)N2CCN(c3ccc(-c4cccc5nn(C)cc45)cc3)CC2)cs1 [Compound D23, (2-Ethynylthiazol-4-yl)(4-(4-(2-methyl-2H-indazol-4-yl)phenyl)piperazin-1-yl)-methanone]	≤ 200
C#Cc1nc(C(=O)N2CCC(c3ccc(C#N)cc3)CC2)cs1 [Compound D24, 4-(1-(2-Ethynylthiazole-4-carbonyl)piperidin-4-yl)benzonitrile]	≤ 200
C#Cc1nc(C(=O)N2CCN(c3ccc(-c4cccc5[nH]ncc45)cc3)CC2)cs1 [Compound D25, (4-(4-(1H-Indazol-4-yl)phenyl)piperazin-1-yl)(2-ethynylthiazol-4-yl)methanone]	≤ 200
C#Cc1nc(C(=O)N2CCN(c3ccc(C#N)cc3)CC2)cs1 [Compound D26, 4-(4-(2-Ethynylthiazole-4-carbonyl)piperazin-1-yl)benzonitrile]	200 to 1000
C#Cc1nc(C(=O)N2CCN(c3ccc([N+](=O)[O-])cc3)CC2)cs1 [Compound D27, (2-Ethynylthiazol-4-yl)(4-(4-nitrophenyl)piperazin-1-yl)methanone]	≤ 200

SMILES	EC50 [nM]
C#Cc1nc(C(=O)N2CCN(c3ccccc3)CC2)cs1 [Compound D28, (2-Ethynylthiazol-4-yl)(4-phenylpiperazin-1-yl)methanone]	200 to 1000
C#Cc1nc(C(=O)N2CCC(c3ccccc3)CC2)cs1 [Compound D29, (2-Ethynylthiazol-4-yl)(4-phenylpiperidin-1-yl)methanone]	200 to 1000
C#Cc1nc(C(=O)N2CCc3ccccc3C2)cs1 [Compound D30, (3,4-Dihydroisoquinolin-2(1H)-yl)(2-ethynylthiazol-4-yl)methanone]	200 to 1000
C#Cc1nc(C(=O)N2CCC(O)CC2)cs1 [Compound D31, (2-Ethynylthiazol-4-yl)(4-hydroxypiperidin-1-yl)methanone]	> 5000
C#Cc1nc(C(=O)N2CCCCC2CCO)cs1 (centres unmarked) [Compound D32, (2-Ethynylthiazol-4-yl)(2-(2-hydroxyethyl)piperidin-1-yl)methanone]	> 5000
C#Cc1nc(C(=O)N2CCCC(CO)C2)cs1 (centres unmarked) [Compound D33, (2-Ethynylthiazol-4-yl)(3-(hydroxymethyl)piperidin-1-yl)methanone]	> 5000
C#Cc1nc(C(=O)N2CCCC(O)C2)cs1 (centres unmarked) [Compound D34, (2-Ethynylthiazol-4-yl)(3-hydroxypiperidin-1-yl)methanone]	> 5000
C#Cc1nc(C(=O)N2CCC(C(=O)OC)CC2)cs1 [Compound D35, Methyl 1-(2-ethynylthiazole-4-carbonyl)piperidine-4-carboxylate]	> 5000
C#Cc1nc(C(=O)N2CCCC(C(=O)OC)C2)cs1 (centres unmarked) [Compound D36, Methyl 1-(2-ethynylthiazole-4-carbonyl)piperidine-3-carboxylate]	> 5000
C#Cc1nc(C(=O)N2CCCCC2C(=O)OC)cs1 (centres unmarked) [Compound D37, Methyl 1-(2-ethynylthiazole-4-carbonyl)piperidine-2-carboxylate]	> 5000
C#Cc1nc(NC(=O)CCc2ccc(-c3cccc4ncsc34)cc2)cs1 [Compound E1, 3-(4-(benzo[d]thiazol-7-yl)phenyl)-N-(2-ethynylthiazol-4-yl)propanamide]	200 to 1000
C#Cc1nc(NC(=O)[C@@H](N)Cc2ccccc2)cs1 [Compound E2, (S)-2-Amino-N-(2-ethynylthiazol-4-yl)-3-phenylpropanamide]	1000 to 5000
C#Cc1nc(NC(=O)[C@H](N)Cc2ccccc2)cs1 [Compound E3, (R)-2-Amino-N-(2-ethynylthiazol-4-yl)-3-phenylpropanamide]	200 to 1000
C#Cc1nc(NC(=O)CCc2ccc(-c3cccc4c3cnn4C)cc2)cs1 [Compound E4, N-(2-Ethynylthiazol-4-yl)-3-(4-(1-methyl-1H-indazol-4-yl)phenyl)propanamide]	≤ 200
C#Cc1nc(NC(=O)[C@H](N)Cc2ccccc2C#N)cs1 [Compound E5, (R)-2-Amino-3-(2-cyanophenyl)-N-(2-ethynylthiazol-4-yl)propenamide]	≤ 200
C#Cc1nc(C(=O)NCCc2cccc(-c3cncs3)c2)cs1 [Compound E6, 2-Ethynyl-N-(3-(thiazol-5-yl)phenethyl)thiazole-4-carboxamide]	200 to 1000
C#Cc1nc(C(=O)NCCc2cccc(-c3cscn3)c2)cs1 [Compound E7, 2-Ethynyl-N-(3-(thiazol-4-yl)phenethyl)thiazole-4-carboxamide]	1000 to 5000
C#Cc1nc(NC(=O)[C@@H](N)Cc2ccccc2C#N)cs1 [Compound E8, (S)-2-Amino-3-(2-cyanophenyl)-N-(2-ethynylthiazol-4-yl)propenamide]	1000 to 5000
C#Cc1nc(NC(=O)CCc2ccc3c(c2)OCO3)cs1 [Compound E9, 3-(Benzo[d][1,3]dioxol-5-yl)-N-(2-ethynylthiazol-4-yl)propanamide]	200 to 1000
C#Cc1nc(NC(=O)c2ccc3ccccc3n2)cs1 [Compound E10, N-(2-Ethynylthiazol-4-yl)quinoline-2-carboxamide]	1000 to 5000
C#Cc1nc(NC(=O)C=Cc2ccccc2)cs1 [Compound E11, N-(2-Ethynylthiazol-4-yl)cinnamamide]	200 to 1000
C#Cc1nc(NC(=O)c2ccccc2)cs1 [Compound E12, N-(2-Ethynylthiazol-4-yl)benzamide]	1000 to 5000
